Experimental data from patent US6765003B1, “3-Arylsulfonyl-2 (substituted methyl) propanoic acid derivatives as matrix metalloproteinase inhibitors” (Pharmacia Italia, SpA, priority 1999, dated 2004).
Like-named read-outs stand apart in the source and are kept apart here.

Columns and labels:
patients = conditions: may be severe and dose-limiting; cited from earlier work
[1] = biological target: T1, Human gelatinase-A (MMP-2) (Homo sapiens, UniProt P08253); experiment: MMP inhibition, internal fluorescence quenching method (MCA peptide substrate); type: biochemical
T1 sequence (P08253 110-660): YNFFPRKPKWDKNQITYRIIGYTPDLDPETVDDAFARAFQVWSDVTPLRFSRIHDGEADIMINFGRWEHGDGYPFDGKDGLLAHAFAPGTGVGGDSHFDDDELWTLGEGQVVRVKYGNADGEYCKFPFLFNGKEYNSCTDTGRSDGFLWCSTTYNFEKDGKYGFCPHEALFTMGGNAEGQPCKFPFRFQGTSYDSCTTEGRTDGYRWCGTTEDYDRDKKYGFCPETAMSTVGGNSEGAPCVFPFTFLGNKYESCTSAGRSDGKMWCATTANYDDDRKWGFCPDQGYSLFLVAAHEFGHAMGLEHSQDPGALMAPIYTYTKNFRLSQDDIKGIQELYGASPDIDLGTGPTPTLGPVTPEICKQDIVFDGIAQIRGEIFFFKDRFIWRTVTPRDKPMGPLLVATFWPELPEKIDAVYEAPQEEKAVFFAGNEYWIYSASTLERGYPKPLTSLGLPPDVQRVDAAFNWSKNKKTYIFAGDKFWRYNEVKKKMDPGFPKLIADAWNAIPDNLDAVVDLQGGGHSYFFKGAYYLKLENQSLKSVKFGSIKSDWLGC
Description: (§1) The inhibitory activity of the compounds of the present invention was evaluated in vitro against one or more of the MMP enzymes (gelatinases, collagenases, stromelysins) using the internal fluorescence quenching method. The assay method is based on the hydrolysis of the MMP substrate, MCA-Pro-Leu-Gly-Leu-DPA-Ala—Arg-NH2 at 37° C. (see Knight, C. G. et al., FEBS Lett. 296:263-266, 1992). The enzymes cleave at the Gly-Leu bond removing the internally quenching DPA group. The release of the highly fluorescent peptide MCA-Pro-Leu was monitored with a LS50 Perkin Elmer fluorimeter equipped with a Peltier-thermostated cell holder using an excitation wavelength of 326 nm and an emission wavelenght of 398 nm. Slis were set at 14/14. Proper determination of steady-state rates of substrate cleavage required a preincubation at 37° C. of 15 minutes to allow for complete equilibration of the enzyme-inhibitor complex. […] Rates of substrate hydrolysis, expressed as fluorescence arbitrary units per minute, were calculated by least-square analysis of the steady-state linear progression curves. The steady-state rates were fitted to the Michaelis equation describing competitive inhibition; in particular, Ki,app were determined by fining the data to the tight-binding equation of Morrison (Biochem. Biophys. Acta, 185:269-286, 1969) by non-linear methods.
(§2) Human gelatinase-A (MMP-2) was obtained as penzyme (72 kDa) and was activated with 1 mM 4-aminophenylmercuric acetate for 30 min at 37° C. immediately prior to use. The inhibitor was diluted into the assay from a stock solution in 100% DMSO, and controls substituted an equal volume of DMSO so that the final DMSO concentration from inhibitor and substrate dilution in all assays was 1%. The concentration of MMP-2 was 19.2 picoM. For compounds of formula (I) where X is —OH, the assay buffer was 50 mM Tris/HCl pH 6.5 containing 150 mM NaCl, 10 mM CaCl2, 0.01 mM ZnCl2 and 0.05% Brij35 (Protocol A). Other conditions were as stated above.
The compounds of formula (I) where X is —NHOH were tested against MMP-2 and MMP-1 under the conditions stated above, but the assay solution was buffered at pH 7.4 (Protocol B).

[2] = biological target: T2, Human fibroblast collagenase (MMP-1) (Homo sapiens, UniProt P03956); experiment: MMP inhibition, internal fluorescence quenching method (MCA peptide substrate); type: biochemical
T2 sequence (P03956 101-269): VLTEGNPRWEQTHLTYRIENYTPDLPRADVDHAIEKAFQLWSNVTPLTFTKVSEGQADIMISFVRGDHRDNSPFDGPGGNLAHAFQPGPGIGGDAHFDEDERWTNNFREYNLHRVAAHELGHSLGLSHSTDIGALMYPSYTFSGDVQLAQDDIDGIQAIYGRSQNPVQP
Description: as §1, §2
Assay conditions were the same as above, but enzyme concentration was 200 picoM.

rats = conditions: rat, in vivo
Excerpt: Questions remain concerning their specificity, bioavailability, and potential long-tens toxicity (see Hodgson, J., ‘Remodeling MMPIs’, Biotechnology 13:554-557, 1995), especially because they are primarily intended (in arthritis and cancer, at least) for prolonged therapy. […] Although the cause of this toxicity is not well understood at this moment, it is thought to arise from an impairment in the normal tissue remodeling that is governed by one or more of the MMPs, primarily fibroblast collagenase (MMP-1). […] Thus, there is a strong need for better MMPIs, especially as far as the properties referred to above (specificity, bioavailability, long-term toxicity) are concerned.

[3] = Protocol A: Tris/HCl pH 6.5, 37° C., MMP-2 19.2 picoM, substrate 3 μM, carboxylic acids, read-out: MMP-2 Ki

Structure (SMILES) | Ki [1, 3] [nM] | melting point [°C] | other results
CC1(C)SCCN(S(=O)(=O)c2ccc(Oc3ccncc3)cc2)[C@H]1C(=O)NO [AG3340] | – | – | musculoskeletal syndrome in patients (patients): cause a musculoskeletal syndrome characterized by joint pain and stiffness
COc1ccc(S(=O)(=O)N(Cc2cccnc2)[C@@H](C(=O)NO)C(C)C)cc1 [CGS27023A] | – | – | musculoskeletal syndrome in patients (patients): cause a musculoskeletal syndrome characterized by joint pain and stiffness
CC1(C)NC(=O)N(CC(CS(=O)(=O)c2ccc(-c3ccc(Cl)cc3)cc2)C(=O)O)C1=O (stereo not drawn) [Example 9, 3-[(4′-chloro[1,1′-biphenyl]-4-yl)sulfonyl]-2-[(4,4-dimethyl-2,5-dioxo-1-imidazolidinyl)methyl]propanoic acid] | 3 | 242 to 245 | –
O=C(O)C(CN1C(=O)CNC1=O)CS(=O)(=O)c1ccc(-c2ccc(Cl)cc2)cc1 (stereo not drawn) [Example 11, 3-[(4′-chloro[1,1′-biphenyl]-4-yl)sulfonyl]-2-[(2,5-dioxo-1-imidazolidinyl)methyl]propanoic acid] | 4 | 188 to 190 | –
O=C(NO)C(CN1C(=O)CNC1=O)CS(=O)(=O)c1ccc(-c2ccc(Cl)cc2)cc1 (stereo not drawn) [Example 12, 3-[(4′-chloro[1,1′-biphenyl]-4-yl)sulfonyl]-N-hydroxy-2-[(2,5-dioxo-1-imidazolidinyl)methyl]propanamide] | – | 150 to 156 | Ki ([1]; Protocol B: pH 7.4, 37° C., hydroxamic acids (X is —NHOH), read-out: MMP-2 Ki (picoM)): 0.069 nM; Ki ([2]; Protocol B: pH 7.4, 37° C., hydroxamic acids (X is —NHOH), read-out: MMP-1 Ki (picoM)): 17.1 nM
Nc1nnc(SCC(CS(=O)(=O)c2ccc(-c3ccc(Cl)cc3)cc2)C(=O)O)s1 (stereo not drawn) [Example 23, 3-[(4′-chloro[1,1′-biphenyl]-4-yl)sulfonyl]-2-[[(5-amino-1,3,4-thiadiazol-2-yl)sulfanyl]methyl]propanoic acid] | 25 | 184 to 186 | –
Cc1cc(SCC(CS(=O)(=O)c2ccc(-c3ccc(Cl)cc3)cc2)C(=O)O)nc(C)n1 (stereo not drawn) [Example 26, 3-[(4′-chloro[1,1′-biphenyl]-4-yl)sulfonyl]-2-[[(2,6-dimethyl-4-pyrimidinyl)sulfanyl]methyl]propanoic acid] | 26.8 | 170 to 172 | –
CNC(=O)[C@@H](NC(=O)[C@H](CC(C)C)[C@H](O)C(=O)NO)C(C)(C)C [Marimastat] | – | – | joint toxicity (histology of stifle joints) (rats): elicited histological alteration of stifle joints
CNC(=O)[C@@H](NC(=O)[C@@H](CC(=O)NO)CC(C)C)C(C)(C)C [Ro31-9790] | – | – | joint toxicity (histology of stifle joints) (rats): elicited histological alteration of stifle joints

Now from value to compound, other results behind:

Ki [1, 3] [nM] | melting point [°C] | Structure (SMILES) | other results
8 | 166 to 168 | O=C(O)C(CSc1ncccn1)CS(=O)(=O)c1ccc(-c2ccc(Cl)cc2)cc1 (stereo not drawn) [Example 22, 3-[(4′-chloro[1,1′-biphenyl]-4-yl)sulfonyl]-2-[(2-pyrimidinylsulfanyl)methyl]-propanoic acid] | Ki ([2]; Protocol A: pH 6.5, 37° C., enzyme 200 picoM, substrate 3 μM, carboxylic acids, read-out: MMP-1 Ki): 8030 nM
22.8 | 170 to 172 | Cc1cc(C)nc(SCC(CS(=O)(=O)c2ccc(-c3ccc(Cl)cc3)cc2)C(=O)O)n1 (stereo not drawn) [Example 27, 3-[(4′-chloro[1,1′-biphenyl]-4-yl)sulfonyl]-2-[[(4,6-dimethyl-2-pyrimidinyl)sulfanyl]methyl]propanoic acid] | –
6.6 | 152 to 154 | O=C(O)C(CSc1nccs1)CS(=O)(=O)c1ccc(-c2ccc(Cl)cc2)cc1 (stereo not drawn) [Example 28, 3-[(4′-chloro[1,1′-biphenyl]-4-yl)sulfonyl]-2-[(1,3-thiazol-2-ylsulfanyl)methyl]propanoic acid] | –
26 | 98 to 100 | Cn1nnnc1SCC(CS(=O)(=O)c1ccc(-c2ccc(Cl)cc2)cc1)C(=O)O (stereo not drawn) [Example 32, 3-[(4′-chloro[1,1′-biphenyl]-4-yl)sulfonyl]-2-[[(1-methyl-1H-tetrazol-5-yl)sulfanyl]methyl]propanoic acid] | –
